Data published in US20120004244A1, “Bis Aromatic Compounds for Use as LTC4 Synthase Inhibitors” (BIOLIPOX AB, priority 2009, published 2012).
pIC50: −log10 of the molar value.

Target: T1, Recombinant human LTC4 synthase (Homo sapiens, UniProt Q16873)
T1 construct: made in house; host or cells: Pichia pastoris ('Piccia pastoralis' [sic])
T1 sequence (Q16873 1-150): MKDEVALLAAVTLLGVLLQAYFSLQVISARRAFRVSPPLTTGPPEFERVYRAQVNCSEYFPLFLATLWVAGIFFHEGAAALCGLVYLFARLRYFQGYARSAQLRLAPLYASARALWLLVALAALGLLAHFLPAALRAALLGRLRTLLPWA
Assay: LTC4 synthase in vitro assay (LTA4 to LTC4, HTRF detection)
Format: biochemical
Details: for inhibition at 10 µM: 5 min, total concentration of title compound in the assay 10 μM
How it was run: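 Purified recombinant human LTC4 synthase expressed in Pichia (0.5 μg/mL total protein) was preincubated with inhibitor at 10 μM final for 10 min at room temperature in PBS pH 7.4 with 5 mM GSH. LTA4 was then added at 2.5 μM final, and after 5 min at room temperature LTC4 was detected by HTRF.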

Compound	pIC50	inhibition at 10 µM
CN(c1ccc(Cl)cc1)c1ccc(C(=O)c2ccc(Oc3ccccc3)c(C(=O)O)c2)cn1 [6:1]	6.18	94%
CN(c1ccc(Cl)cc1)c1ccc(C(=O)c2ccc(Oc3ccc(F)c(F)c3)c(C(=O)O)c2)cn1 [6:2]	6.20	96%
O=C(c1ccc(Oc2ccccc2)c(C(=O)O)c1)c1ccc(-c2cccc(Cl)c2)cn1 [7:1, 5-[5-(3-Chlorophenyl)picolinoyl]-2-phenoxybenzoic acid]	5.96	
O=C(c1ccc(Oc2ccccc2)c(C(=O)O)c1)c1ccc(-c2ccc(Cl)cc2)cn1 [7:2, 5-[5-(4-Chlorophenyl)picolinoyl]-2-phenoxybenzoic acid]	6.12	
O=C(c1ccc(Oc2ccccc2)c(C(=O)O)c1)c1ccc(-c2cccc(C(F)(F)F)c2)cn1 [7:3, 2-Phenoxy-5-[5-(3-trifluoromethylphenyl)picolinoyl]benzoic acid]	6.15	
CN(c1ccc(Cl)cc1)c1ccc(C(=O)c2cc(C(=O)O)c(Oc3ccccc3)cn2)cc1 [8:2]	6.52	99%
CN(c1ccc(Cl)cc1)c1ccc(C(=O)c2ccc(Oc3ccccc3)c(C(=O)O)n2)cc1 [9:1, 6-{4-[(4-Chlorophenyl)(methyl)amino]benzoyl}-3-phenoxypicolinic acid]	6.13	94%
CN(c1ccc(Cl)cc1)c1ccc(C(=O)c2ccc(Oc3ccc(F)c(F)c3)c(C(=O)O)n2)cc1 [9:2]	6.08	94%
CN(c1ccc(Cl)cc1)c1cnc(C(=O)c2ccc(Oc3ccc(F)cc3)c(C(=O)O)c2)nc1 [10:1, 5-{5-[(4-Chlorophenyl)(methyl)amino]pyrimidine-2-carbonyl}-2-(4-fluorophenoxy)-benzoic acid]	6.81	97%
CN(c1ccc(Cl)cc1)c1cnc(C(=O)c2ccc(Oc3ccccc3)c(C(=O)O)c2)nc1 [10:3, 5-{5-[(4-Chlorophenyl)(methyl)amino]pyrimidine-2-carbonyl}-2-phenoxybenzoic acid]	6.52	
O=C(c1ccc(Oc2ccccc2)c(C(=O)O)c1)c1ncc(N(Cc2ccccc2)c2ccc(Cl)cc2)cn1 [10:5, 5-{5-[(Benzyl)(4-chlorophenyl)amino]pyrimidine-2-carbonyl}-2-phenoxybenzoic acid]	6.92	
O=C(c1ccc(Oc2ccccc2)c(C(=O)O)c1)c1ccc(OCc2cccc(Cl)c2)cn1 [11:1, 5-[5-(3-Chlorobenzyloxy)picolinoyl]-2-phenoxybenzoic acid]	6.84	
COc1ccc(Oc2ccc(C(=O)c3ccc(OCc4cccc(Cl)c4)cn3)cc2C(=O)O)cc1 [11:2, 5-[5-(3-Chlorobenzyloxy)picolinoyl]-2-(4-methoxyphenoxy)benzoic acid]	6.46	
O=C(c1ccc(Oc2ccccc2)c(C(=O)O)c1)c1ccc(OCc2cccc(C(F)(F)F)c2)cn1 [11:5, 2-Phenoxy-5-[5-(3-trifluoromethylbenzyloxy)picolinoyl]benzoic acid]	6.74	
O=C(c1ccc(Oc2ccccc2)c(C(=O)O)c1)c1ccc(OCc2ccc(C(F)(F)F)cc2)cn1 [11:6, 2-Phenoxy-5-[5-(4-trifluoromethylbenzyloxy)picolinoyl]benzoic acid]	6.45	
O=C(c1ccc(Oc2ccccc2)c(C(=O)O)c1)c1ccc(OCc2ccccc2C(F)(F)F)cn1 [11:7, 2-Phenoxy-5-[5-(2-trifluoromethylbenzyloxy)picolinoyl]benzoic acid]	6.03	
O=C(c1ccc(Oc2ccccc2)c(C(=O)O)c1)c1ccc(OCc2cccc(Br)c2)cn1 [11:8, 5-[5-(3-Bromobenzyloxy)picolinoyl]-2-phenoxybenzoic acid]	6.90	
O=C(c1ccc(Oc2ccccc2)c(C(=O)O)c1)c1ccc(OCc2ccc(Cl)c(Cl)c2)cn1 [11:9, 5-[5-(3,4-Dichlorobenzyloxy)picolinoyl]-2-phenoxybenzoic acid]	7.16	
COc1ccc(COc2ccc(C(=O)c3ccc(N(C)c4ccc(Cl)cc4)cn3)cc2C(=O)O)cc1 [12:1, 5-{5-[(4-Chlorophenyl)(methyl)amino]picolinoyl}-2-(4-methoxybenzyloxy)benzoic acid]	6.42	
CN(c1ccc(Cl)cc1)c1ccc(C(=O)c2ccc(OCc3ccc(F)c(F)c3)c(C(=O)O)c2)nc1 [12:4, 5-{5-[(4-Chlorophenyl)(methyl)amino]picolinoyl}-2-(3,4-difluorobenzyloxy)-benzoic acid]	6.82	
CN(c1ccc(Cl)cc1)c1ccc(C(=O)c2ccc(OCc3ccc4c(c3)OCO4)c(C(=O)O)c2)nc1 [12:5, 5-{5-[(4-Chlorophenyl)(methyl)amino]picolinoyl}2-(3,4-methylenedioxy-benzyloxy)benzoic acid]	6.78	

Second part, the compound after the results:

pIC50	inhibition at 10 µM	Compound
7.09	99%	O=C(c1ccc(N(CC2CC2)c2ccc(Cl)cc2)cc1)c1cc(C(=O)O)c(Oc2ccccc2)cn1 [8:1, 2-{4-[(4-Chlorophenyl)(cyclopropylmethyl)amino]benzoyl}-5-phenoxyisonicotinic acid]
6.88		O=C(c1ccc(Oc2ccccc2)c(C(=O)O)c1)c1ncc(N(CC2CC2)c2ccc(Cl)cc2)cn1 [10:4, 5-{5-[(4-Chlorophenyl)(cyclopropylmethyl)amino]pyrimidine-2-carbonyl}-2-phenoxybenzoic acid]
6.74		CN(c1ccc(Cl)cc1)c1ccc(C(=O)c2ccc(OCc3ccccc3Cl)c(C(=O)O)c2)nc1 [12:2, 2-(2-Chlorobenzyloxy)-5-{5-[(4-chlorophenyl)(methyl)amino]picolinoyl}benzoic acid]
6.44		CN(c1ccc(Cl)cc1)c1ccc(C(=O)c2ccc(OCc3ccc(Cl)cc3)c(C(=O)O)c2)nc1 [12:3, 2-(4-Chlorobenzyloxy)-5-{5-[(4-chlorophenyl)(methyl)amino]picolinoyl}benzoic acid]
6.66		COc1cccc(COc2ccc(C(=O)c3ccc(N(C)c4ccc(Cl)cc4)cn3)cc2C(=O)O)c1 [12:6, 5-{5-[(4-Chlorophenyl)(methyl)amino]picolinoyl}-2-(3-methoxybenzyloxy)-benzoic acid]
6.43		CN(c1ccc(Cl)cc1)c1ccc(C(=O)c2ccc(OCc3ccccc3)c(C(=O)O)c2)nc1 [12:7, 2-Benzyloxy-5-{5-[(4-chlorophenyl)(methyl)amino]picolinoyl}benzoic acid]
6.94	98%	CN(c1ccc(Cl)cc1)c1ccc(C(=O)c2ccc(-n3nncc3-c3ccccc3)c(C(=O)O)c2)nc1 [17:1, 5-{5-[(4-Chlorophenyl)(methyl)amino]picolinoyl}-2-(5-phenyl-1,2,3-triazol-1-yl)-benzoic acid]
7.35	100%	O=C(c1ccc(-n2nncc2-c2ccccc2)c(C(=O)O)c1)c1ccc(N(CC2CC2)c2ccc(Cl)cc2)cn1 [17:3, 5-{5-[(4-Chlorophenyl)(cyclopropylmethyl)amino]picolinoyl}-2-(5-phenyl-1,2,3-triazol-1-yl)benzoic acid]
7.80		O=C(c1ccc(-n2nncc2-c2cccc(Cl)c2)c(C(=O)O)c1)c1ccc(N(CC2CC2)c2ccc(Cl)cc2)cn1 [17:4, 5-{5-[(4-Chlorophenyl)(cyclopropylmethyl)amino]picolinoyl}-2-(5-(3-chlorophenyl)-1,2,3-triazol-1-yl)benzoic acid]
7.25		O=C(c1ccc(-n2nncc2-c2ccc(F)cc2)c(C(=O)O)c1)c1ccc(N(CC2CC2)c2ccc(Cl)cc2)cn1 [17:5, 5-{5-[(4-Chlorophenyl)(cyclopropylmethyl)amino]picolinoyl}-2-(5-(4-fluorophenyl)-1,2,3-triazol-1-yl)benzoic acid]
6.97		O=C(c1ccc(-n2nncc2-c2ccccn2)c(C(=O)O)c1)c1ccc(N(CC2CC2)c2ccc(Cl)cc2)cn1 [17:6, 5-{5-[(4-Chlorophenyl)(cyclopropylmethyl)amino]picolinoyl}-2-(5-(pyridin-2-yl)-1,2,3-triazol-1-yl)benzoic acid]
6.53		O=C(c1ccc(-n2nc(C(F)(F)F)cc2-c2ccccc2)c(C(=O)O)c1)c1ccc(N(CC2CC2)c2ccc(Cl)cc2)cn1 [18:1, 5-{5-[(4-Chlorophenyl)(cyclopropylmethyl)amino]picolinoyl}-2-(5-phenyl-3-trifluoro-methylpyrazol-1-yl)benzoic acid]
6.98		CN(c1ccc(Cl)cc1)c1ccc(C(=O)c2ccc(-n3nc(-c4ccccc4)cc3C(F)(F)F)c(C(=O)O)c2)nc1 [18:2, 5-{5-[(4-Chlorophenyl)(methyl)amino]picolinoyl}-2-(3-phenyl-5-trifluoro-methylpyrazol-1-yl)benzoic acid]
6.75		CN(c1ccc(Cl)cc1)c1ccc(C(=O)c2ccc(-n3nc(C(F)(F)F)cc3-c3ccccc3)c(C(=O)O)c2)nc1 [18:3]
7.19		O=C(c1ccc(-n2nc(-c3ccccc3)cc2C(F)(F)F)c(C(=O)O)c1)c1ccc(N(CC2CC2)c2ccc(Cl)cc2)cn1 [18:4, 5-{5-[(4-Chlorophenyl)(cyclopropylmethyl)amino]picolinoyl}-2-(3-phenyl-5-trifluoromethylpyrazol-1-yl)benzoic acid]
6.94		CN(c1ccc(Cl)cc1)c1ccc(C(=O)c2ccc(-n3nc(-c4cccc(Cl)c4)cc3C(F)(F)F)c(C(=O)O)c2)nc1 [18:5, 5-{5-[(4-Chlorophenyl)(methyl)amino]picolinoyl}-2-[3-(3-chlorophenyl)-5-trifluoromethylpyrazol-1-yl]benzoic acid]
6.94		CN(c1ccc(Cl)cc1)c1ccc(C(=O)c2ccc(-n3nc(-c4ccc(Cl)cc4)cc3C(F)(F)F)c(C(=O)O)c2)nc1 [18:6, 5-{5-[(4-Chlorophenyl)(methyl)amino]picolinoyl}-2-[3-(4-chlorophenyl)-5-trifluoromethylpyrazol-1-yl]benzoic acid]
